These results are taken from patent US9409914B2, “Triazolo[4,5-d]pyrimidine derivatives” (Merck Patent GmbH, priority 2012, dated 2016).

The IC50 is the concentration that inhibits the measured activity by half.

For assay [1], the target named is T1, GCN2 (Homo sapiens, UniProt Q9P2K8). Put plainly: GCN2 enzyme assay (TR-FRET Lanthascreen, phosphorylation of GFP-eIF2alpha). To be noted: 10 μM ATP, 80 nM GFP-eIF2alpha, 30 nM GCN2, room temperature. Type of assay: biochemical. The procedure, abridged:
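Two-step TR-FRET (Lanthascreen) format: GCN2 incubated at room temperature with 10 μM ATP and 80 nM GFP-labelled eIF2alpha, then stopped with EDTA. Phospho-eIF2alpha detected by Tb-labelled antibody, excitation 340 nm; activity taken from the 520/495 nm emission ratio.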
Target sequence in this assay (Q9P2K8 whole entry, species assumed): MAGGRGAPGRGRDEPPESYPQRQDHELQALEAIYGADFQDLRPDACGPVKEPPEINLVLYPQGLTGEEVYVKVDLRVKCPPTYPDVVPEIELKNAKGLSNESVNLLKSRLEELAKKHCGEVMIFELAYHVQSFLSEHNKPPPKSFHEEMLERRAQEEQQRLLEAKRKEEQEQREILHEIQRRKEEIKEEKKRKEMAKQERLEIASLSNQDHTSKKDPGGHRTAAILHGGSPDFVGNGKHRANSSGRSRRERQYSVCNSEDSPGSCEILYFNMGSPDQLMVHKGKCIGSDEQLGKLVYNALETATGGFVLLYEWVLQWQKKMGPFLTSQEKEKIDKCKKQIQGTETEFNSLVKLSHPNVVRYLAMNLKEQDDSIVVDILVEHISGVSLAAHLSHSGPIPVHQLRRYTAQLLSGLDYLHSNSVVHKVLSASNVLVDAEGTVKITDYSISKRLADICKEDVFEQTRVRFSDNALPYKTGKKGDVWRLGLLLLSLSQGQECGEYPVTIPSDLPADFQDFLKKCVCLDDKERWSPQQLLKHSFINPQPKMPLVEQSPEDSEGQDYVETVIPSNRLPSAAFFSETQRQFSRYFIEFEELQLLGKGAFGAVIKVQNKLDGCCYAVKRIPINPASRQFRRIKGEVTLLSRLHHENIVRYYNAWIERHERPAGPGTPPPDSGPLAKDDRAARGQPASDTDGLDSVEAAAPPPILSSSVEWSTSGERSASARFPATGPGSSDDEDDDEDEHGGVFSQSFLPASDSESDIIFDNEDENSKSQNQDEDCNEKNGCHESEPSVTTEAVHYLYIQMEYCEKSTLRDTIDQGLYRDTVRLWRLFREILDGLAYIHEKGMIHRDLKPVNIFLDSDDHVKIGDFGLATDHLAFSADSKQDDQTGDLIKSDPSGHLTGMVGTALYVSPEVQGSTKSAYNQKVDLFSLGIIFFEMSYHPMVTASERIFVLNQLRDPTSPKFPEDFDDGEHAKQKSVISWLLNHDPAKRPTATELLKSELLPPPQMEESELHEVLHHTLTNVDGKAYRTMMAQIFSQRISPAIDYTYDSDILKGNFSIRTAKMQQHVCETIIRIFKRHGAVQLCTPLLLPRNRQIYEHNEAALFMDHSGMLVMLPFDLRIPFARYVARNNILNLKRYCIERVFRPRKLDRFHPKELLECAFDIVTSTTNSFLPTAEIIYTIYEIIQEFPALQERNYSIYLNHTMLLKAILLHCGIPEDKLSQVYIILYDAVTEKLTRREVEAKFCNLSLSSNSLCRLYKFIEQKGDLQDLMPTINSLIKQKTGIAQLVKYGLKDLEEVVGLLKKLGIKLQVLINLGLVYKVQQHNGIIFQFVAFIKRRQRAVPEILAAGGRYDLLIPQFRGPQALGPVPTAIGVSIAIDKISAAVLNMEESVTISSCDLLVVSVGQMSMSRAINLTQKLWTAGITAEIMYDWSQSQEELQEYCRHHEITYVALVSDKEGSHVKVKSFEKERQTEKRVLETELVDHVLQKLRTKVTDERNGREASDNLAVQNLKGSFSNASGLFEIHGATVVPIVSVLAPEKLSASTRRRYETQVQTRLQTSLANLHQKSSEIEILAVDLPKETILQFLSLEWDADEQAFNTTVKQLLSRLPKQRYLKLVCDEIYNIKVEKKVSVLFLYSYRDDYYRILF

The target of assay [2] is T1, GCN2. Kind of assay: Cellular assay for GCN2 activity (phospho-eIF2alpha immunocytochemistry, tryptophanol-stimulated U2OS cells). Type of assay: cell-based. Set-up: endogenous in cells; host or cells: U2OS. The conditions noted are these: 2 hours compound, then 600 μM tryptophanol 30 minutes, anti-phospho-eIF2alpha, read-out: IC50 GCN2 (cell assay). The procedure, abridged: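 U2OS cells treated with compound for 2 h, then stimulated with 600 μM tryptophanol for 30 min. Phospho-eIF2alpha (Ser51) detected by immunofluorescence after formaldehyde fixation. Signal normalised to DMSO-only wells as % effect, and IC50 fitted.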
Target sequence in this assay (Q9P2K8 whole entry): as the sequence (Q9P2K8 whole entry, species assumed) above

The structures appear in SMILES notation. Some results are limits rather than exact numbers.

Regarding `CCn1cc(Nc2ncc3nnn(-c4cnn(CC)c4)c3n2)cn1` [Compound A106, (1-ethyl-1H-pyrazol-4-yl)-[3-(1-ethyl-1H-pyrazol-4-yl)-3H-[1,2,3]triazolo[4,5-d]pyrimidin-5-yl]-amine], the IC50 at GCN2 [1] is less than 0.3 µM; on GCN2 [2], 3 to 50 µM.
